Assay results published in patent publication US12297171B2, “EP2 antagonist compounds” (Reservoir Neuroscience, Inc., priority 2021, dated 2025).

Target: T1, EP2 receptor (Homo sapiens, UniProt P43116)
T1 construct: expressed in transfected cells; host or cells: CHO-K1 cells (ATCC), transiently transfected with FuGENE 6
Assay: EP2 potency assay (cAMP TR-FRET, LANCE Ultra cAMP kit, antagonism of prostaglandin E2 at EC80)
Format: cell-based
Conditions: CHO-K1 cells transfected with EP2 receptor
Description: Compound potency was measured using a cAMP TR-FRET assay.
CHO-K1 cells (ATCC) were seeded at a density of 9.75×10^5 in 6 cm plates, and then on the following day cell media was changed to Opti-Mem I reduced serum media (Gibco), and transfected with a plasmid for expression of the EP2 receptor (the target receptor of interest), using the FuGENE 6 Transfection reagent (Promega). After 6 hours incubation, the cell media was replaced with F12 medium supplemented with 10% FBS and 100 U/ml Pen-Strep. 24 hours after transfection, cells were harvested and seeded at a density of 3000 cells/well in a 384 well plate to perform the cAMP assay, using the LANCE Ultra cAMP assay kit (PerkinElmer).
For each test compound of interest, 10 nl/well of serially diluted test compound was added to each well, resulting in a range of 10 serially diluted compound concentrations from 10000 nM to 0.038 nM, with duplicate wells for each concentration. Plates were then centrifuged at 1000 rpm for 1 min, agitated at 600 rpm at R.T. for 2 min, and incubated at 25° C. for 5 min. The reference agonist, prostaglandin E2 (MCE), was added to each well at the appropriate concentration to reach its EC80 value. Plates were then centrifuged at 1000 rpm for 1 min, agitated at 600 rpm at R.T. for 2 min, and incubated at 25° C. for 30 min.
To measure levels of cAMP, 5 μl/well of Eu-cAMP working solution and 5 μl/well of Ulight-anti-cAMP working solution were added to each well, and plate was centrifuged at 1000 rpm for 1 min, agitated at 600 rpm at R.T. for 2 min, and incubated at 25° C. for 15 min. Levels of TR-FRET fluorescence were measured in each well using an EnVision microplate reader (excitation wavelength=337 nm and emission wavelength=615 and 665 nm). A dose-response curve was prepared by plotting percent inhibition for each compound concentration, and then IC50 was calculated by fitting a curve to the plotted values and extrapolating the IC50 concentration.
Potency data is grouped into categories of AA (IC50<100 nM); A (IC50=100 to 500 nM); B (IC50=500 nM to 1 μM); C (IC50=1 μM to 5 μM); and D (IC50>5 μM).

T1 sequence (P43116 whole entry): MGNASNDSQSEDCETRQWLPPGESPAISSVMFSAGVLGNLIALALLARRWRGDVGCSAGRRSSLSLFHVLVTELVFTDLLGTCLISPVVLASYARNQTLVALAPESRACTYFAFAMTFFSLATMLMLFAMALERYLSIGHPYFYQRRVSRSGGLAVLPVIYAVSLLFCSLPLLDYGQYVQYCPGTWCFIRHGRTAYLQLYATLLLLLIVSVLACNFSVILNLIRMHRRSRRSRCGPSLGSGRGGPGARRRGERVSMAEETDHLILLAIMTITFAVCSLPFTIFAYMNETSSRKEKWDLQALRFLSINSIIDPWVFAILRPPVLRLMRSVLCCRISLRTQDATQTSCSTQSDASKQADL

How did the IC50 turn out when `COc1ccc(C(N2CCC(COc3ccc(-c4ccc(C#N)cc4)cc3)(C(=O)O)C2)C(F)(F)F)cc1` (stereo not drawn) [Compound 4-1, 3-[({4′-cyano-[1,1′-biphenyl]-4-yl}oxy)methyl]-1-[2,2,2-trifluoro-1-(4-methoxyphenyl)ethyl]pyrrolidine-3-carboxylic acid; trifluoroacetic acid] was run?
Its IC50 is over 5000 nM.

Which IC50 does the source give for `COc1ccc(C(=O)N2CCC(COc3ccc(-c4ccc(C#N)cc4)cc3)(C(=O)NO)C2)cc1` (stereo not drawn) [Compound 4-13, 3-(((4′-cyano-[1,1′-biphenyl]-4-yl)oxy)methyl)-N-hydroxy-1-(4-methoxybenzoyl)pyrrolidine-3-carboxamide] here?
The IC50 was 1000 to 5000 nM.

With `COc1ccc(C(=O)N2CCC(COc3ccc(-c4ccc(C#N)cc4)cc3)(c3cc[nH]c(=O)c3)C2)cc1` (stereo not drawn) [Compound 4-16, 4′-{[1-(4-methoxybenzoyl)-3-(2-oxo-1H-pyridin-4-yl)pyrrolidin-3-yl]methoxy}-[1,1′-biphenyl]-4-carbonitrile] as the molecule, how does the IC50 read?
Its IC50 is over 5000 nM.

For `COc1ccc(C(=O)N2CCC(COc3ccc(-c4ccc(C#N)cc4)cc3)(C(=O)NCC(F)(F)F)C2)cc1` (stereo not drawn) [Compound 4-20, 3-(((4′-cyano-[1,1′-biphenyl]-4-yl)oxy)methyl)-1-(4-methoxybenzoyl)-N-(2,2,2-trifluoroethyl)pyrrolidine-3-carboxamide], which IC50 is on record?
Its IC50 is over 5000 nM.

`COc1ccc(C(=O)N2CCC(COc3ccc(-c4ccc(C#N)cc4)cc3)(C(=O)NC#N)C2)cc1` (stereo not drawn) [Compound 4-21, N-cyano-3-(((4′-cyano-[1,1′-biphenyl]-4-yl)oxy)methyl)-1-(4-methoxybenzoyl)pyrrolidine-3-carboxamide] was tested. Which IC50 did it give?
Its IC50 is 1000 to 5000 nM.

How did the IC50 turn out when `COc1ccc(C(=O)N2CCC(COc3ccc(-c4ccc(C#N)cc4)cc3)(C(=O)N(C)O)C2)cc1` (stereo not drawn) [Compound 4-22, 3-(((4′-cyano-[1,1′-biphenyl]-4-yl)oxy)methyl)-N-hydroxy-1-(4-methoxybenzoyl)-N-methylpyrrolidine-3-carboxamide] was run?
The IC50 was 1000 to 5000 nM.

Which IC50 does the source give for `CONC(=O)C1(COc2ccc(-c3ccc(C#N)cc3)cc2)CCN(C(=O)c2ccc(OC)cc2)C1` (stereo not drawn) [Compound 4-23, 3-(((4′-cyano-[1,1′-biphenyl]-4-yl)oxy)methyl)-N-methoxy-1-(4-methoxybenzoyl)pyrrolidine-3-carboxamide] here?
Its IC50 is over 5000 nM.

Which IC50 does the source give for `CCS(=O)(=O)NC(=O)C1(COc2ccc(-c3ccc(C#N)cc3)cc2)CCN(C(=O)c2ccc(OC)cc2)C1` (stereo not drawn) [Compound 4-25, 3-[({4′-cyano-[1,1′-biphenyl]-4-yl}oxy)methyl]-N-(ethanesulfonyl)-1-(4-methoxybenzoyl)pyrrolidine-3-carboxamide] here?
The IC50 was 500 to 1000 nM.

Which IC50 does the source give for `COc1ccc(C(=O)N2CCC(COc3ccc(-c4ccc(C#N)cc4)cc3)(C(=O)NS(=O)(=O)CC(F)(F)F)C2)cc1` (stereo not drawn) [Compound 4-26, 3-[({4′-cyano-[1,1′-biphenyl]-4-yl}oxy)methyl]-1-(4-methoxybenzoyl)-N-(2,2,2-trifluoroethanesulfonyl)pyrrolidine-3-carboxamide] here?
Its IC50 is 1000 to 5000 nM.

Which IC50 does the source give for `COCS(=O)(=O)NC(=O)C1(COc2ccc(-c3ccc(C#N)cc3)cc2)CCN(C(=O)c2ccc(OC)cc2)C1` (stereo not drawn) [Compound 4-27, 3-[({4′-cyano-[1,1′-biphenyl]-4-yl}oxy)methyl]-1-(4-methoxybenzoyl)-N-methoxymethanesulfonylpyrrolidine-3-carboxamide] here?
The IC50 was 100 to 500 nM.

With `COc1ccc(C(=O)N2CCC(COc3ccc(-c4ccc(C#N)cc4)cc3)(C(=O)NS(=O)(=O)C(C)C)C2)cc1` (stereo not drawn) [Compound 4-28, 3-[({4′-cyano-[1,1′-biphenyl]-4-yl}oxy)methyl]-1-(4-methoxybenzoyl)-N-(propane-2-sulfonyl)pyrrolidine-3-carboxamide] as the molecule, how does the IC50 read?
The IC50 was 500 to 1000 nM.

Which IC50 does the source give for `COc1ccc(C(=O)N2CCC(COc3ccc(-c4ccc(C#N)cc4)cc3)(C(=O)NS(=O)(=O)C(C)(C)C)C2)cc1` (stereo not drawn) [Compound 4-29, 3-[({4′-cyano-[1,1′-biphenyl]-4-yl}oxy)methyl]-1-(4-methoxybenzoyl)-N-(2-methylpropane-2-sulfonyl)pyrrolidine-3-carboxamide] here?
Its IC50 is over 5000 nM.
